Molecules are shown by their SMILES.

The compound `CCC(C)C(C)C(C)(C)C` (stereo unspecified) [2,2,3,4-Tetramethylhexane] registered a flash point of 31 °C. Turning to `CCC(C)C(C)(C)C` (stereo unspecified) [2,2,3-Trimethylpentane], the flash point is -3 °C. For the compound `CC(CC(C)(C)C)CC(C)(C)CC(C)(C)C` (stereo unspecified) [2,2,4,4,6,8,8-Heptamethylnonane], the flash point worked out at 95 °C. `CCC(C)(C)CC(C)(C)C` [2,2,4,4-Tetramethylhexane] gave a flash point of 31 °C. Still for that read-out and setting: the figure for `CCC(C)CC(C)(C)C` (stereo unspecified) [2,2,4-Trimethylhexane] is 15 °C; for `CCCCCC(C)(C)C` [2,2-Dimethylheptane] it is 24 °C. Compound `CCCCC(C)(C)C` [2,2-Dimethylhexane] came in with a flash point of -4 °C. `CCCC(C)(C)C` [2,2-Dimethylpentane] displayed a flash point of -23 °C. Consider `CC(C)(C)C` [2,2-Dimethylpropane], for which the flash point was -65 °C.

With `CCCC(C)(C)C(C)C` [2,3,3-Trimethylhexane], the flash point is 15 °C. The same measure, in the same setting: the figure for `CCC(C)(C)C(C)C(C)C` (stereo unspecified) [2,3,4,4-Tetramethylhexane] is 31 °C; for `CC(C)C(C)C(C)C(C)C` (stereo unspecified) [2,3,4,5-Tetramethylhexane] it is 31 °C. In turn, `CC(C)C(C)C(C)C` [2,3,4-Trimethylpentane] yielded a flash point of -0 °C. Compound `CCCCC(C)C(C)C` (stereo unspecified) [2,3-Dimethylheptane] displayed a flash point of 15 °C. For `CCCCCC(C)C(C)C` (stereo unspecified) [2,3-Dimethyloctane], the flash point turned out to be 41 °C.

Regarding `CCC(C)(C)CC(C)C` [2,4,4-Trimethylhexane], the flash point was determined as 15 °C. For `CC(C)CC(C)CC(C)C` [2,4,6-Trimethylheptane], the flash point worked out at 31 °C. For the compound `CCCC(C)CC(C)C` (stereo unspecified) [2,4-Dimethylheptane], the flash point came to 15 °C. `CCC(C)CC(C)C` (stereo unspecified) [2,4-Dimethylhexane]: the flash point was 10 °C. On the same count and under the same terms, the figure for `CC(C)CCCCC(C)C` [2,7-Dimethyloctane] is 41 °C.

Regarding `CCCC(C)C` [2-Methylpentane], the flash point is -23 °C.

For the compound `CCC(C)(C)C(C)(C)CC` [3,3,4,4-Tetramethylhexane], the flash point was determined as 31 °C. In turn, `CCCC(C)(C)CC` [3,3-Dimethylhexane] returned a flash point of -1 °C. The same measure, in the same setting: the figure for `CCCCCC(C)(C)CC` [3,3-Dimethyloctane] is 41 °C. Turning to `CCC(C)C(C)CC` (stereo unspecified) [3,4-Dimethylhexane], the flash point was determined as 4 °C.

Consider `CCC(C)CC(C)CC` (stereo unspecified) [3,5-Dimethylheptane], for which the flash point came to 15 °C. Regarding `CCCC(C)CC(C)CC` (stereo unspecified) [3,5-Dimethyloctane], the flash point came to 41 °C. `CCC(CC)C(C)(C)C` [3-Ethyl-2,2-dimethylpentane]: the flash point worked out at 13 °C. Take `CCCCC(C)(CC)CC` [3-Ethyl-3-methylheptane]: the flash point amounted to 41 °C.

`CCC(C)C(CC)CC` (stereo unspecified) [3-Ethyl-4-methylhexane]: the flash point stood at 15 °C. Take `CCC(C)CC(CC)CC` (stereo unspecified) [3-Ethyl-5-methylheptane]: the flash point was found to be 31 °C. The compound `CCC(C)(CC)CC` [3-Methyl-3-ethylpentane] registered a flash point of 3 °C. `CCCC(C)CC` (stereo unspecified) [3-Methylhexane] registered a flash point of -15 °C.

In turn, `CCCCCC(C)CC` (stereo unspecified) [3-Methyloctane] had a flash point of 24 °C.

The source holds these as a separate data set.
For the compound `C[Si]1(C)CCCCO1` [1,1-Dimethyl-1-sila-2-oxacyclohexane], the flash point turned out to be 14.00 °C. The compound `C=C[Si](C)(C)N[Si](C)(C)C=C` [1,3-Divinyltetramethyldisilazane] yielded a flash point of 34.00 °C. Regarding `C=C(CCl)C[Si](C)(C)C` [2-Chloromethyl-3-trimethylsilyl-1-propene], the flash point came out at 43.00 °C. The same measure, in the same setting: the figure for `C[Si](Cl)(Cl)CCCCl` [3-Chloropropylmethyldichlorosilane] is 86.00 °C. As to `C[Si](C)(C)CBr` [Bromomethyltrimethylsilane], the flash point was 16.00 °C. The same measure, in the same setting: the figure for `CCO[Si](C)(C)CCl` [Chloromethyldimethylethoxysilane] is 26.00 °C; for `C[Si](Cl)(Cl)CCC#N` [Cyanoethylmethyldichlorosilane] it is 60.00 °C; for `Cl[SiH](Cl)C1CCCC1` [Cyclopentyldichlorosilane] it is 43.00 °C.

As for `Cl[Si](Cl)(Cl)C1CCCC1` [Cyclopentyltrichlorosilane], the flash point was 77.00 °C.

`C[Si](C)(C)O[Si](C)(C)O[Si](C)(C)O[Si](C)(C)C` [Decamethyltetrasiloxane] gave a flash point of 62.00 °C.

Turning to `C[Si](Cl)(Cl)C(Cl)Cl` [Dichloromethylmethyldichlorosilane], the flash point is 28.00 °C. For the compound `CC[Si](C)(Cl)CC` [Diethylmethylchlorosilane], the flash point came to 15.00 °C.

Take `CC[SiH2]CC` [Diethylsilane]: the flash point was -20.00 °C. `C[SiH](C)c1c(F)c(F)c(F)c(F)c1F` [Dimethyl(pentafluorophenyl) silane] displayed a flash point of 40.00 °C. Still for that read-out and setting: the figure for `C[SiH](C)Cl` [Dimethylchlorosilane] is -28.00 °C; for `CCO[Si](C)(C)OCC` [Dimethyldiethoxysilane] it is 11.00 °C. The compound `C=C[Si](C)(C)C=C` [Divinyldimethylsilane] showed a flash point of 8.00 °C. As to `CCO[Si](C)(C)C` [Ethoxytrimethylsilane], the flash point was -27.00 °C. `CC[Si](Cl)(Cl)Cl` [Ethyltrichlorosilane] came in with a flash point of -10.00 °C.

For `CC[Si](OC)(OC)OC` [Ethyltrimethoxysilane], the flash point was 27.00 °C. With `CN([Si](C)(C)C)[Si](C)(C)C` [Heptamethyldisilazane], the flash point was found to be 27.00 °C. The compound `C[Si](C)(C)O[Si](C)(C)O[Si](C)(C)O[Si](C)(C)O[Si](C)(C)O[Si](C)(C)O[Si](C)(C)C` [Hexadecamethylheptasiloxane] displayed a flash point of 133.00 °C. The same measure, in the same setting: the figure for `C[Si](C)(C)O[SiH2]O[Si](C)(C)C` [Hexamethyltrisiloxane] is 20.00 °C. The same measure, in the same setting: the figure for `CCCCCC[SiH](Cl)Cl` [Hexyldichlorosilane] is 64.00 °C; for `CCCCCC[SiH3]` [Hexylsilane] it is 12.00 °C; for `CCCCCC[Si](OC)(OC)OC` [Hexyltrimethoxysilane] it is 62.00 °C. `C[Si](C)(C)I` [Iodotrimethylsilane] yielded a flash point of 15.00 °C. In turn, `C[Si](Cl)(c1ccccc1)c1ccccc1` [Methyldiphenylchlorosilane] returned a flash point of 138.00 °C. On to `CC(=O)O[Si](C)(OC(C)=O)OC(C)=O` [Methyltriacetoxysilane], for which the flash point was 85.00 °C. The compound `CO[Si](C)(OC)OC` [Methyltrimethoxysilane] gave a flash point of 11.00 °C. Still for that read-out and setting: the figure for `C[Si](C)(C)O[Si](C)(C)O[Si](C)(C)O[Si](C)(C)O[Si](C)(C)O[Si](C)(C)O[Si](C)(C)O[Si](C)(C)C` [Octadecamethyloctasiloxane] is 144.00 °C. On the same count and under the same terms, the figure for `C[Si]1(C)O[Si](C)(C)O[Si](C)(C)O[Si](C)(C)O1` [Octamethylcyclotetrasiloxane] is 57.00 °C. Still for that read-out and setting: the figure for `C[Si](C)(C)O[Si](C)(C)O[Si](C)(C)C` [Octamethyltrisiloxane] is 30.00 °C.

As to `Cl[SiH](Cl)c1ccccc1` [Phenyldichlorosilane], the flash point stood at 60.00 °C. `CCO[Si](OCC)(OCC)c1ccccc1` [Phenyltriethoxysilane] showed a flash point of 120.00 °C. Take `CCCO[Si](OCCC)(OCCC)OCCC` [Tetra-n-propoxysilane]: the flash point was determined as 95.00 °C. In turn, `C[Si](C)(C)O[Si](C)(C)O[Si](C)(C)O[Si](C)(C)O[Si](C)(C)O[Si](C)(C)C` [Tetradecamethylhexasiloxane] gave a flash point of 102.00 °C. As for `CCO[Si](OCC)(OCC)OCC` [Tetraethoxysilane], the flash point came out at 50.00 °C. Take `CC[Si](CC)(CC)CC` [Tetraethylsilane]: the flash point was 32.00 °C.

Take `C=C[Si](C=C)(C=C)C=C` [Tetravinylsilane]: the flash point was 18.00 °C. `Clc1ccc([Si](Cl)(Cl)Cl)cc1` [Trichloro(p-chlorophenyl)silane] showed a flash point of 123.90 °C.

On to `CC[Si](Cl)(CC)CC` [Triethylchlorosilane], for which the flash point amounted to 30.00 °C. Consider `CC(C)[SiH](C(C)C)C(C)C` [Triisopropylsilane], for which the flash point was 37.00 °C. `C[Si](C)(C)Br` [Trimethylbromosilane] gave a flash point of -3.00 °C. Turning to `C[Si](C)(C)c1ccccc1` [Trimethylphenylsilane], the flash point was found to be 40.00 °C.

Compound `C[Si](C)(C)OC(=O)C(F)(F)F` [Trimethylsilyltrifluoroacetate] yielded a flash point of 0.00 °C. The compound `C[Si](C)(C)O[SiH](O[Si](C)(C)C)O[Si](C)(C)C` [Tris(trimethylsiloxy)silane] returned a flash point of 50.00 °C. For the compound `C=C[Si](OCC)(OCC)OCC` [Vinyltriethoxysilane], the flash point stood at 34.00 °C. Still for that read-out and setting: the figure for `CCCC[Si](Cl)(Cl)Cl` [n-Butyltrichlorosilane] is 54.00 °C. Consider `CCCCCCC[Si](C)(Cl)Cl` [n-Heptylmethyldichlorosilane], for which the flash point was 66.00 °C. Turning to `CCCCCCC[Si](Cl)(Cl)Cl` [n-Heptyltrichlorosilane], the flash point is 64.00 °C. `CC(C)(C)[Si](Cl)(Cl)Cl` [t-Butyltrichlorosilane] showed a flash point of 21.00 °C.

This is another data set of the same source.
As for `Clc1ccccn1` [2-chloropyridine], the flash point was found to be 64.00 °C. For `C1=CCCCC1` [cyclohexene], the flash point is -30.00 °C.

This is another data set of the same source.
Compound `C1=CCCCC1` [cyclohexene] yielded a flash point of -17 °C.

The source holds these as a separate data set.
In turn, `Clc1ccccn1` [2-chloropyridine] registered a flash point of 66 °C. Turning to `C1=CCCCC1` [cyclohexene], the flash point is -12 °C.

(Values after a flash point compilation (Sun et al. 2020).)
